For 27 compounds, IC50 results are on record in patent US10696693B2, “Fused imidazole derivatives as TGF-beta inhibitors” (Rigel Pharmaceuticals, Inc., priority 2014, dated 2020).

Assay [1] concerns GDF8. The experiment in a line: AlphaScreen SureFire p-SMAD3 (Ser423/425) assay, GDF8-stimulated cells. The format is cell-based. The essentials: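 Lysate (5 μL) went into 384-well shallow plates with 5 μL of Reaction Buffer, Activation Buffer and AlphaScreen Acceptor bead mix. Plates were sealed, kept dark and shaken for 2 hours at room temperature. Donor beads in dilution buffer (2 μL) were added for another 1½ hours, and p-SMAD3 signal was read on a Synergy-4 or Enspire reader.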
(In general: Alpha assays give light when donor and acceptor beads are brought close together.)

Assay [2] has as its system TGF-β. Put plainly: AlphaScreen SureFire p-SMAD3 (Ser423/425) assay, TGF-β-stimulated cells. The format is cell-based. The essentials: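 The p-SMAD-3 (Ser423/425) SureFire assay measured phosphorylation of endogenous SMAD-3 in cell lysates. Cells were plated overnight in collagen-coated plates, exposed to three-fold serially diluted compounds for about 10 minutes, then stimulated with TGFβ. Lysates (5 μL) received acceptor bead mix for 2 hours, then donor beads for 1½ hours before AlphaScreen reading.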

Setting [3] is: Mus musculus, MPC-11, p-SMAD3 (Ser423/425) AlphaScreen in cell lysate, MPC11, GDF8 stimulation, read-out: GDF8: inhibition of GDF8 signaling, GDF pSMAD (MPC11).
The mark [4] stands for this setting: Mus musculus, p-SMAD3 (Ser423/425) AlphaScreen in cell lysate, MPC-11, TGF-β stimulation, read-out: TGF-β: inhibition of TGF-β signaling, TGF-β pSMAD (MPC-11).
Where [5] appears, read: Mus musculus, MPC-11, read-out: GDF8: inhibition of GDF8 signaling, GDF pSMAD (MPC11), p-SMAD3 (Ser423/425) AlphaScreen in cell lysate, GDF8 stimulation.
The mark [6] stands for this setting: Mus musculus, MPC-11, read-out: TGF-β: inhibition of TGF-β signaling, TGF-β pSMAD (MPC-11), p-SMAD3 (Ser423/425) AlphaScreen in cell lysate, TGF-β stimulation.
Setting [7] is: read-out: GDF8: inhibition of GDF8 signaling, GDF pSMAD (MPC11), p-SMAD3 (Ser423/425) AlphaScreen in cell lysate, GDF8 stimulation.
Where [8] appears, read: read-out: TGF-β: inhibition of TGF-β signaling, TGF-β pSMAD (MPC-11), p-SMAD3 (Ser423/425) AlphaScreen in cell lysate, TGF-β stimulation.

Like-named read-outs stand apart in the source and are kept apart here. Bounds are passed on as bounds.

On to `Cc1cc(-c2nc3n(c2-c2ccc4[nH]ncc4c2)CCC3)c(C)cc1F` [Compound 308, 5-(2-(4-fluoro-2,5-dimethylphenyl)-6,7-dihydro-5H-pyrrolo[1,2-a]imidaol-3-yl)-1H-indazole], for which the IC50 is 100 to 1000 nM in assay [1] (setting [3]) and greater than 1000 nM in assay [2] (setting [4]).
Take `Cc1cc(-c2nc3n(c2-c2ccc4ncsc4c2)CCC3)c(C)cc1F` [Compound 309, 6-(2-(4-fluoro-2,5-dimethylphenyl)-6,7-dihydro-5H-pyrrolo[1,2-a]imidazol-3-yl)benzo[d]thiazole]: the IC50 in assay [1] (setting [5]) and in assay [2] (setting [6]) was 100 to 1000 nM throughout.
For `Cc1cc(-c2nc3n(c2-c2ccc4nccnc4c2)CCC3)c(C)cc1F` [Compound 310, 6-(2-(4-fluoro-2,5-dimethylphenyl)-6,7-dihydro-5H-pyrrolo[1,2-a]imidazol-3-yl)quinoxaline], the IC50 is 100 to 1000 nM in assay [1] (setting [5]) and greater than 1000 nM in assay [2] (setting [6]).
As to `Cc1cc(-c2nc3n(c2-c2ccc4ncccc4c2)CCC3)c(C)cc1F` [Compound 311, 6-(2-(4-fluoro-2,5-dimethylphenyl)-6,7-dihydro-5H-pyrrolo[1,2-a]imidazol-3-yl)quinoline], the IC50 is 100 to 1000 nM in assay [1] (setting [3]) and greater than 1000 nM in assay [2] (setting [4]).
For `Cc1c(F)ccc(-c2nc3n(c2-c2ccc4[nH]ncc4c2)CCC3)c1Cl` [Compound 312, 5-(2-(2-chloro-4-fluoro-3-methylphenyl)-6,7-dihydro-5H-pyrrolo[1,2-a]imidazol-3-yl)-1H-indazole], the IC50 in assay [1] (setting [5]) and in assay [2] (setting [6]) was greater than 1000 nM throughout.
For the compound `Cc1c(F)ccc(-c2nc3n(c2-c2ccc4ncsc4c2)CCC3)c1Cl` [Compound 313, 6-(2-(2-chloro-4-fluoro-3-methylphenyl)-6,7-dihydro-5H-pyrrolo[1,2-a]imidazol-3-yl)benzo[d]thiazole], the IC50 in assay [1] (setting [5]) and in assay [2] (setting [6]) was 100 to 1000 nM throughout.
`Cc1c(F)ccc(-c2nc3n(c2-c2ccc4nccnc4c2)CCC3)c1Cl` [Compound 314, 6-(2-(2-chloro-4-fluoro-3-methylphenyl)-6,7-dihydro-5H-pyrrolo[1,2-a]imidazol-3-yl)quinoxaline]: the IC50 in assay [1] (setting [3]) and in assay [2] (setting [4]) was greater than 1000 nM in each case.
As for `Cc1c(F)ccc(-c2nc3n(c2-c2ccc4ncccc4c2)CCC3)c1Cl` [Compound 315, 6-(2-(2-chloro-4-fluoro-3-methylphenyl)-6,7-dihydro-5H-pyrrolo[1,2-a]imidazol-3-yl)quinoline], the IC50 in assay [1] (setting [5]) and in assay [2] (setting [6]) was greater than 1000 nM each time.
With `Cc1cc(-c2nc3n(c2-c2ccc4[nH]ncc4c2)CCC3)c(Cl)cc1F` [Compound 316, 5-(2-(2-chloro-4-fluoro-5-methylphenyl)-6,7-dihydro-5H-pyrrolo[1,2-a]imidazol-3-yl)-1H-indazole], the IC50 in assay [1] (setting [5]) and in assay [2] (setting [6]) was 100 to 1000 nM throughout.
As for `Cc1cc(-c2nc3n(c2-c2ccc4ncsc4c2)CCC3)c(Cl)cc1F` [Compound 317, 6-(2-(2-chloro-4-fluoro-5-methylphenyl)-6,7-dihydro-5H-pyrrolo[1,2-a]imidazol-3-yl)benzo[d]thiazole], the results for the IC50 in assay [1] (setting [7]) and in assay [2] (setting [8]) were 50 to 100 nM and 100 to 1000 nM, respectively.
Regarding `Cc1cc(-c2nc3n(c2-c2ccc4nccnc4c2)CCC3)c(Cl)cc1F` [Compound 318, 6-(2-(2-chloro-4-fluoro-5-methylphenyl)-6,7-dihydro-5H-pyrrolo[1,2-a]imidazol-3-yl)quinoxaline], the IC50 in assay [1] (setting [7]) lay in the range of 50 to 100 nM; in assay [2] (setting [8]) it was 100 to 1000 nM.
With `Cc1cc(-c2nc3n(c2-c2ccc4ncccc4c2)CCC3)c(Cl)cc1F` [Compound 319, 6-(2-(2-chloro-4-fluoro-5-methylphenyl)-6,7-dihydro-5H-pyrrolo[1,2-a]imidazol-3-yl)quinoline], the IC50 in assay [1] (setting [7]) was 100 to 1000 nM; in assay [2] (setting [6]) it was greater than 1000 nM.
For the compound `O=S(=O)(Nc1cccc(-c2nc3n(c2-c2ccc4[nH]ncc4c2)CCC3)c1)c1ccccc1F` [Compound 320, N-(3-(3-(1H-indazol-5-yl)-6,7-dihydro-5H-pyrrolo[1,2-a]imidazol-2-yl)phenyl)-2-fluorobenzenesulfonamide], the IC50 in assay [1] (setting [5]) and in assay [2] (setting [6]) was greater than 1000 nM each time.
As to `Cc1cc(-c2nc3n(c2-c2ccc4nccnc4c2)CCC3)c(Cl)cc1F` [Compound 321, 6-(2-(2-chloro-4-fluoro-5-methylphenyl)-6,7-dihydro-5H-pyrrolo[1,2-a]imidazol-3-yl)quinoxaline], the IC50 in assay [1] (setting [7]) and in assay [2] (setting [8]) was greater than 1000 nM in each case.
As for `Cc1cc(-c2nc3n(c2-c2ccc4ncccc4c2)CCC3)c(Cl)cc1F` [Compound 322, 6-(2-(2-chloro-4-fluoro-5-methylphenyl)-6,7-dihydro-5H-pyrrolo[1,2-a]imidazol-3-yl)quinoline], the IC50 in assay [1] (setting [7]) and in assay [2] (setting [8]) was greater than 1000 nM each time.
For `Cc1cc(-c2nc3n(c2-c2ccc4ncsc4c2)CCC3)c(Cl)cc1F` [Compound 323, 6-(2-(2-chloro-4-fluoro-5-methylphenyl)-6,7-dihydro-5H-pyrrolo[1,2-a]imidazol-3-yl)benzo[d]thiazole], the IC50 in assay [1] (setting [7]) and in assay [2] (setting [8]) was greater than 1000 nM each time.
On to `Fc1ccc(-c2nc3n(c2-c2ccc4[nH]ncc4c2)CC2(CCCC2)C3)cc1` [Compound 324, 2′-(4-fluorophenyl)-3′-(1H-indazol-5-yl)-5′H,7′H-spiro[cyclopentane-1,6′-pyrrolo[1,2-a]imidazole]], for which the IC50 in assay [1] (setting [5]) and in assay [2] (setting [6]) was greater than 1000 nM each time.
Consider `Fc1ccc(-c2nc3n(c2-c2ccc4ncsc4c2)CC2(CCCC2)C3)cc1` [Compound 325, 6-(2′-(4-fluorophenyl)-5′H,7′H-spiro[cyclopentane-1,6′-pyrrolo[1,2-a]imidazol]-3′-yl)benzo[d]thiazole], for which the IC50 in assay [1] (setting [5]) and in assay [2] (setting [6]) was greater than 1000 nM each time.
For the compound `Fc1ccc(-c2nc3n(c2-c2ccc4nccnc4c2)CC2(CCCC2)C3)cc1` [Compound 326, 2′-(4-fluorophenyl)-3′-(quinoxalin-6-yl)-5′H,7′H-spiro[cyclopentane-1,6′-pyrrolo[1,2-a]imidazole]], the IC50 in assay [1] (setting [5]) and in assay [2] (setting [6]) was greater than 1000 nM in each case.
For `Fc1ccc(-c2nc3n(c2-c2ccc4ncccc4c2)CC2(CCCC2)C3)cc1` [Compound 327, 2′-(4-fluorophenyl)-3′-(quinolin-6-yl)-5′H,7′H-spiro[cyclopentane-1,6′-pyrrolo[1,2-a]imidazole]], the IC50 in assay [1] (setting [5]) and in assay [2] (setting [6]) was greater than 1000 nM in each case.
As to `Cc1c(F)ccc(-c2nc3n(c2-c2ccc4[nH]ncc4c2)CCC3)c1C` [Compound 328, 5-(2-(4-fluoro-2,3-dimethylphenyl)-6,7-dihydro-5H-pyrrolo[1,2-a]imidazol-3-yl)-1H-indazole], the figures for the IC50 in assay [1] (setting [5]) and in assay [2] (setting [6]) were 100 to 1000 nM and greater than 1000 nM, respectively.
With `Cc1c(F)ccc(-c2nc3n(c2-c2ccc4ncsc4c2)CCC3)c1C` [Compound 329, 6-(2-(4-fluoro-2,3-dimethylphenyl)-6,7-dihydro-5H-pyrrolo[1,2-a]imidazol-3-yl)benzo[d]thiazole], the figures for the IC50 in assay [1] (setting [5]) and in assay [2] (setting [6]) were 100 to 1000 nM and greater than 1000 nM, respectively.
Regarding `Cc1c(F)ccc(-c2nc3n(c2-c2ccc4nccnc4c2)CCC3)c1C` [Compound 330, 6-(2-(4-fluoro-2,3-dimethylphenyl)-6,7-dihydro-5H-pyrrolo[1,2-a]imidazol-3-yl)quinoxaline], the IC50 in assay [1] (setting [5]) and in assay [2] (setting [6]) was greater than 1000 nM throughout.
`Cc1c(F)ccc(-c2nc3n(c2-c2ccc4ncccc4c2)CCC3)c1C` [Compound 331, 6-(2-(4-fluoro-2,3-dimethylphenyl)-6,7-dihydro-5H-pyrrolo[1,2-a]imidazol-3-yl)quinoline]: the IC50 in assay [1] (setting [5]) and in assay [2] (setting [6]) was greater than 1000 nM throughout.
Turning to `O=C(O)C1CCC2(CC1)Cc1nc(-c3ccc(F)cc3)c(-c3ccc4ncsc4c3)n1C2` (stereo not drawn) [Compound 332, 3′-(benzo[d]thiazol-6-yl)-2′-(4-fluorophenyl)-5′H,7′H-spiro[cyclohexane-1,6′-pyrrolo[1,2-a]imidazole]-4-carboxylic acid], the IC50 in assay [1] (setting [5]) was 100 to 1000 nM; in assay [2] (setting [6]), greater than 1000 nM.
As for `CCOC(=O)C1CCC2(CC1)Cc1nc(-c3ccc(F)cc3)c(-c3ccc4nccnc4c3)n1C2` (stereo not drawn) [Compound 333, Ethyl 2′-(4-fluorophenyl)-3′-(quinoxalin-6-yl)-5′H,7′H-spiro[cyclohexane-1,6′-pyrrolo[1,2-a]imidazole]-4-carboxylate], the IC50 in assay [1] (setting [5]) and in assay [2] (setting [6]) was greater than 1000 nM throughout.
For `O=C(O)C1CCC2(CC1)Cc1nc(-c3ccc(F)cc3)c(-c3ccc4nccnc4c3)n1C2` (stereo not drawn) [Compound 334, 2′-(4-fluorophenyl)-3′-(quinoxalin-6-yl)-5′H,7′H-spiro[cyclohexane-1,6′-pyrrolo[1,2-a]imidazole]-4-carboxylic acid], the IC50 in assay [1] (setting [5]) and in assay [2] (setting [6]) was greater than 1000 nM in each case.
